Legend:
human PARG [1] = target: human PARG (Homo sapiens, UniProt Q86W56, E756N); test: fluorescence polarization direct binding
human PARG [2] = target: human PARG (Homo sapiens, UniProt Q86W56, E755N); test: fluorescence polarization direct binding
human PARG (Homo sapiens, UniProt Q86W56, E755N), sequence (Q86W56 whole entry E755N): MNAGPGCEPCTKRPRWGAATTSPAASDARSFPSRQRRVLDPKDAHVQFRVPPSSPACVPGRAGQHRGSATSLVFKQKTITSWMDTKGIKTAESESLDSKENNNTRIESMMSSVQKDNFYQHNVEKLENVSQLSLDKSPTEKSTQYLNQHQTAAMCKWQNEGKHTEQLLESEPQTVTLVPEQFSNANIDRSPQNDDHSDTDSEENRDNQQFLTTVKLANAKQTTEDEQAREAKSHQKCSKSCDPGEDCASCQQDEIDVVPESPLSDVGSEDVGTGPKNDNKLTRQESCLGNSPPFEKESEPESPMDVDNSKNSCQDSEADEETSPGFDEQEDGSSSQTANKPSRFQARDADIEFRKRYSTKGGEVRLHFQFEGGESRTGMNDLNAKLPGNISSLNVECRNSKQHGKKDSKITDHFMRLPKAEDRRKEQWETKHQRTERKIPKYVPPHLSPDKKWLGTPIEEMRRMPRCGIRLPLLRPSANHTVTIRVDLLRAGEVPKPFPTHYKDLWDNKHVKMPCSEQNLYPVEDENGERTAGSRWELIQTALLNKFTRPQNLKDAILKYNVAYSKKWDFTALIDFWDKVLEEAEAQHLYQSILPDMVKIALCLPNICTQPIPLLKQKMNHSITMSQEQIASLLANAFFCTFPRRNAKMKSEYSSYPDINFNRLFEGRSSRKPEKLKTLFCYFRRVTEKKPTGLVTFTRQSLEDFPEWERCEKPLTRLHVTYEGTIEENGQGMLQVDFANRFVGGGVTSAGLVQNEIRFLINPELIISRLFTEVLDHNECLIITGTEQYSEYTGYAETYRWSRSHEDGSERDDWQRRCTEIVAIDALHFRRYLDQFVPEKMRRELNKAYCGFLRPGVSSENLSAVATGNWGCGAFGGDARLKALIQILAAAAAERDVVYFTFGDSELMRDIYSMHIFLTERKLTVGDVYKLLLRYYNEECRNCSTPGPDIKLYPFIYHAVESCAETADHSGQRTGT

human PARG (Homo sapiens, UniProt Q86W56, E756N), sequence (Q86W56 whole entry E756N): as the sequence (Q86W56 whole entry E755N) above, with N755E, E756N counted along it

Kd (human PARG [1]): 83 ± 7 nM
Kd (human PARG [2]): 208 ± 14 nM
Substance: Cy3 ADP-ribose dimer [compound 22]
